Laboratory results: article PMC6136660 (Steroids, 2018)

Tests used:
[1] = Clinical safety (treatment-emergent adverse events), SAD; type: in vivo, human
Procedure: In the SAD part of the study, 7 cohorts were to be enrolled. Eight subjects were assigned to each of Cohorts 1 to 5 and 7 and received a single oral dose of vamorolone (planned as 0.1 mg/kg, 0.3 mg/kg, 1.0 mg/kg, 3.0 mg/kg, 8.0 mg/kg, and 20.0 mg/kg, respectively) or placebo under fasted conditions. Six subjects were assigned to Cohort 6 and were administered a single oral dose of 8.0 mg/kg vamorolone within 30 min of beginning a high fat/high calorie meal.
Subjects in Cohorts 1 through 5 and 7 were randomized to receive vamorolone or placebo in a 3:1 ratio (6 subjects received vamorolone, and 2 subjects received placebo) sequentially. In Cohort 1, 3 sentinel subjects were administered vamorolone or placebo in a 2:1 ratio. Following a review of sentinel safety and tolerability data (including reported adverse events [AEs], clinical laboratory tests, vital signs, and electrocardiograms [ECGs]), the remaining 5 subjects were randomized to receive vamorolone or placebo in a 4:1 ratio and dosed no earlier than 48 h after sentinel dosing. In Cohorts 2 to 5, and 7, subjects were administered vamorolone or placebo in a 3:1 ratio. Once Cohort 5 was completed and safety data had been reviewed, subjects in Cohort 6 were administered a single oral dose of 8.0 mg/kg vamorolone within 30 min of beginning a standard high fat/high calorie meal.
After completion of all scheduled safety follow-up visits for a given cohort, a Safety Review Committee (SRC), comprised of the Principal Investigator (PI), the Sponsor’s Medical Monitor, and the Sponsor’s pharmacokineticist, reviewed all available PK and safety data (AEs, physical examination findings, ECGs, vital signs, and clinical laboratory tests) in a blinded manner for the completed cohort prior to making a decision to escalate to the next higher dose level.
In the SAD part, overall, six subjects (11%) administered vamorolone experienced a total of 10 treatment-emergent adverse events (TEAEs); no subject in the placebo group experienced any TEAEs. There was no dose-related trend in the incidence or severity of TEAEs; the dose group with the highest number of subjects reporting TEAEs was the 0.1 mg/kg dose group (2 subjects, 33%), and the highest number of TEAEs (3 events) was reported by 1 subject in the 1.0 mg/kg vamorolone dose group. In the 0.3 and 3.0 mg/kg vamorolone fasted and the 8.0 mg/kg fed dose groups, 1 subject per group (17%) experienced TEAEs, and no subjects in the 8.0 mg/kg and 20 mg/kg, fasted, dose groups experienced any TEAEs. The most common TEAEs were dizziness and headache, each reported by 2 subjects overall (4%); all other TEAEs were reported by only 1 subject (2%) and included ear pain, nausea, non-cardiac chest pain, and blood bilirubin increased. Three subjects (6%) had TEAEs that were considered possibly related to treatment. Possibly related TEAEs included nausea (1 subject, 2%), dizziness (2 subjects, 4%), and headache (2 subjects, 4%). […] All other TEAEs were mild in severity.

[2] = system: CTX1 (C-terminal telopeptide of collagen 1); test: Serum CTX1 (bone resorption biomarker), MAD; type: in vivo, human; settings: mean±SEM
Procedure: All biomarkers were analyzed using standard immunoassays by PRA.
Pharmacological glucocorticoids cause bone side effects including osteopenia and bone fragility. Bone turnover markers bridged to later bone morbidities include osteocalcin for bone formation, and CTX1 (C-terminal telopeptide of collagen 1) for bone absorption. These biomarkers predict phenotypes of osteopenia and used in clinical trials to monitor bone side effects of treatments. […] (Supplemental Fig. 2). In the vamorolone Phase 1 trial, serum osteocalcin levels were assayed prior to dosing (Day 1 predose), 8 h after initial dose (Day 1), pre-dose on day 14 of daily dosing, 8 h after the day 14 (last) dose, and during recovery days 15 and 17.

SMILES: C[C@@H]1C[C@H]2[C@@H]3CCC4=CC(=O)C=C[C@]4(C)C3=CC[C@]2(C)[C@@]1(O)C(=O)CO [vamorolone]
- subjects reporting TEAEs ([1]; SAD 0.1 mg/kg (2 subjects)): 33%
- subjects experiencing TEAEs ([1]; SAD 0.3 mg/kg fasted (1 subject)): 17%
- number of TEAEs ([1]; SAD 1.0 mg/kg, reported by 1 subject): 3 events
- subjects experiencing TEAEs ([1]; SAD 3.0 mg/kg fasted (1 subject)): 17%
- subjects experiencing TEAEs ([1]; SAD 8.0 mg/kg fasted): no subjects
- subjects experiencing TEAEs ([1]; SAD 8.0 mg/kg fed (1 subject)): 17%
- subjects experiencing TEAEs ([1]; SAD 20 mg/kg fasted): no subjects
- subjects experiencing TEAEs, overall ([1]; SAD, all dose groups (six subjects, 10 TEAEs)): 11%
- CTX1 ([2]; MAD 1.0 mg/kg, Day 1 (8 h after initial dose)): 0.22 ± 0.02 ng/mL
- CTX1 ([2]; MAD 1.0 mg/kg, Day 1 (predose), baseline): 0.50 ± 0.11 ng/mL
- CTX1 ([2]; MAD 1.0 mg/kg, Day 14 (8 h after last dose)): 0.22 ± 0.01 ng/mL
- CTX1 ([2]; MAD 1.0 mg/kg, Day 14 (predose)): 0.58 ± 0.12 ng/mL
- CTX1 ([2]; MAD 1.0 mg/kg, Day 15 recovery): 0.68 ± 0.16 ng/mL
- CTX1 ([2]; MAD 1.0 mg/kg, Day 17 recovery): 0.55 ± 0.09 ng/mL
- CTX1 ([2]; MAD 3.0 mg/kg, Day 1 (8 h after initial dose)): 0.18 ± 0.00 ng/mL
- CTX1 ([2]; MAD 3.0 mg/kg, Day 1 (predose), baseline): 0.31 ± 0.05 ng/mL
- CTX1 ([2]; MAD 3.0 mg/kg, Day 14 (8 h after last dose)): 0.18 ± 0.00 ng/mL
- CTX1 ([2]; MAD 3.0 mg/kg, Day 14 (predose)): 0.48 ± 0.13 ng/mL
- CTX1 ([2]; MAD 3.0 mg/kg, Day 15 recovery): 0.48 ± 0.10 ng/mL
- CTX1 ([2]; MAD 3.0 mg/kg, Day 17 recovery): 0.46 ± 0.12 ng/mL
- CTX1 ([2]; MAD 9.0 mg/kg, Day 1 (8 h after initial dose)): 0.19 ± 0.006 ng/mL
- CTX1 ([2]; MAD 9.0 mg/kg, Day 1 (predose), baseline): 0.59 ± 0.11 ng/mL
- CTX1 ([2]; MAD 9.0 mg/kg, Day 14 (8 h after last dose)): 0.23 ± 0.03 ng/mL
- CTX1 ([2]; MAD 9.0 mg/kg, Day 14 (predose)): 0.73 ± 0.14 ng/mL
- CTX1 ([2]; MAD 9.0 mg/kg, Day 15 recovery): 0.77 ± 0.13 ng/mL
- CTX1 ([2]; MAD 9.0 mg/kg, Day 17 recovery): 0.60 ± 0.10 ng/mL
- CTX1 ([2]; MAD 20.0 mg/kg, Day 1 (8 h after initial dose)): 0.22 ± 0.02 ng/mL
- CTX1 ([2]; MAD 20.0 mg/kg, Day 1 (predose), baseline): 0.70 ± 0.14 ng/mL
- CTX1 ([2]; MAD 20.0 mg/kg, Day 14 (8 h after last dose)): 0.29 ± 0.06 ng/mL
- CTX1 ([2]; MAD 20.0 mg/kg, Day 14 (predose)): 0.88 ± 0.12 ng/mL
- CTX1 ([2]; MAD 20.0 mg/kg, Day 15 recovery): 0.92 ± 0.14 ng/mL
- CTX1 ([2]; MAD 20.0 mg/kg, Day 17 recovery): 0.76 ± 0.10 ng/mL
